This note sets out measurements from paper PMC12603272 (2025).

The assay deals with AT-rich palindromic dodecanucleotide dsDNA (DNA, duplex) CGCAAATTTGCG
Put plainly: photoluminescence titration. The note with it: dsDNA stock 10 mM Tris, 0.1 mM EDTA pH 8.0, 25 °C.

Molecules are shown by their SMILES.

For `CN1CCN(c2ccc3nc(-c4ccc5nc(-c6ccc(O)cc6)[nH]c5c4)[nH]c3c2)CC1`, under “dsDNA (0-8 µM) into 8 µM compound in D2O”, the binding result is “yes”.
Turning to `Cn1ccc(=Nc2ccc(NC(=O)c3ccc(N=c4ccn(C)c5ccc([N+](=O)[O-])cc45)cc3)cc2)cc1`, the binding entry (dsDNA (0-10 µM) into 10 µM compound in D2O) is on record as “yes”.
